According to PubChem BioAssay (NCI):
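Results reflect a 48-hour exposure of cells in 96-well plates to compound at five concentrations. TGI: concentration producing complete growth inhibition.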

How the values were obtained:
Assay in all cases: NCI anticancer screen, dose series, 48 h
[1] = system: KM12 colon
[2] = system: UACC-62 melanoma
[3] = system: HCT-116 colon
[4] = system: SK-OV-3 ovarian
[5] = system: PC-3 prostate
[6] = system: CCRF-CEM leukemia
[7] = system: A498 renal
[8] = system: MOLT-4 leukemia
[9] = system: T-47D breast
[10] = system: NCI-H460 lung
[11] = system: MALME-3M melanoma
[12] = system: SK-MEL-5 melanoma
[13] = system: UACC-257 melanoma
[14] = system: LOX IMVI melanoma

Compound | TGI [1] [µM] | TGI [2] [µM] | TGI [3] [µM] | TGI [4] [µM] | TGI [5] [µM] | TGI [6] [µM] | TGI [7] [µM] | TGI [8] [µM] | TGI [9] [µM] | TGI [10] [µM] | TGI [11] [µM] | TGI [12] [µM] | TGI [13] [µM] | TGI [14] [µM]
Cc1cc2c(cc1-c1cc3c(cc1C)C(C(C)C)=C(O)C(=O)/C3=C\Nc1c3ccccc3nc3ccccc13)/C(=C/Nc1c3ccccc3nc3ccccc13)C(=O)C(O)=C2C(C)C | 14.1 | 14.6 | 21.5 | 15.9 | 12.9 | 25.5 | 21.9 | 16 | 26.8 | 6.3 | 10.1 | 15.4 | 16.6 | 
COc1ccc(Nc2nnc(-c3nsc4ccccc34)s2)cc1 | > 100 | > 100 | 45.2 | 19 | > 100 | > 100 | 15.8 | > 100 | > 100 | > 65.9 |  | > 100 | > 100 | > 100
O=C1/C(=C\c2ccc(O)cc2)CCC/C1=C/c1ccc(Cl)c(Cl)c1 | 3.77 | 5.24 | 4.01 | 17 | 12.7 | 1.2 | 14.3 | 5.8 | 33.3 |  | 17.5 | 19.6 | 15.7 | 3.62
O=C(CC(=O)N(C(=O)/C=C\c1ccccc1)c1ccc(Cl)cc1)N1N=C(c2ccccc2)C(N=Nc2cccc([N+](=O)[O-])c2)C1=O (stereo not drawn) | 38.7 | 42.1 | 13.5 | 40.7 | 14.4 | 38.5 | 35.6 | 24.7 | > 100 | 29.5 | 44.5 |  |  | > 100
COC(=O)C1(C(=O)OC)Cc2ccc(OC)cc2C2=C1C(=O)c1ccccc1C2=O | 23.5 | 4.37 | 10.9 |  | 4.18 | 11.8 | 41.8 | 3.97 | 6.9 | 33 | 26.3 | 19.3 | 7.15 | 5.39
CCOC(CN(C)C(=O)Nc1cccc2ccccc12)OCC | > 10 | > 10 | > 10 | > 10 | > 10 | > 10 | > 10 | > 10 | > 10 | > 10 | > 10 | > 10 | > 10 | > 10
C=CCN1C(=O)/C(=C/c2ccco2)N=C1SC/C=C/C | > 100 | 73.7 | > 100 | > 100 | > 100 | > 100 | > 100 | 54.7 | > 100 | > 100 | > 100 | 44.3 | > 100 | 80.6
CNC1=C(C)C(=O)C(=O)C([C@H](C)CCC=C(C)C)=C1O | > 100 | > 72.3 | > 100 | 83.3 | 98.7 | > 29.4 | 62.3 | > 48.5 | 86.3 | > 100 | > 68.6 | 41.4 | > 100 | > 100
O=C(Nc1ccc(Cl)cc1)NS(=O)(=O)c1coc2cc(F)ccc2c1=O | > 100 | > 100 |  | > 100 | > 100 | > 100 |  | > 100 | > 100 | > 100 | > 100 | > 100 | > 100 | > 100
Cc1ccc2c(c1)[nH]c(=S)n2/C=C1\C(=O)Oc2ccccc2C1=O | > 100 | > 100 | > 100 |  | > 100 | > 100 | > 100 | > 100 | > 100 | > 100 | > 100 | > 100 | > 100 | > 100
CCOC(=O)/C(C#N)=C\c1ccc(N(CCC(=O)O)CCC(=O)O)c(I)c1 | > 10 | > 10 | > 10 | > 10 | > 10 | > 10 |  | > 10 | > 10 | > 10 | > 10 | > 10 | > 10 | > 10
CSc1nc(C#N)c(/N=C\N(C)C)n1C | > 100 | > 100 | > 100 | > 100 | > 100 | > 100 | > 100 | > 100 | > 100 | > 100 | > 100 | > 100 | > 100 | > 100
C=CCOc1cccc(C2(O)c3ccccc3C3=NCCCN32)c1 (stereo not drawn) | 24.7 | 31.6 | 29.6 | > 100 | > 44.4 | 40.9 | 53.2 | 40 | 45.5 | 36.7 | 35.1 | 41.9 | 33.1 | 29.4
CC(C)Cn1cnc2c(NCC(C)O)nc3ccccc3c21 (stereo not drawn) | > 100 | > 100 | > 100 | > 100 | > 100 | > 100 | > 100 | > 100 | > 100 | > 100 | > 100 | > 100 | > 100 | > 100
Cn1c(=O)c(Br)c(C=O)n(CCO[N+](=O)[O-])c1=O |  | 4.9 | 16.1 | 38.7 | 23.5 | 5.25 | 33.4 | 5.8 | 14.6 | 31.5 |  | 23.9 |  | 5.51
CC(=O)NC1C(OCc2ccccc2)OC(CO)C(O)C1OC(C)C(=O)NC(C(=O)N[C@@H](CCC(=O)NCCNCCNc1c2ccccc2nc2cccc([N+](=O)[O-])c12)C(N)=O)C(C)C (stereo partly drawn) | 98.7 |  | 56.2 | > 100 | > 100 | > 100 | > 100 | 53.2 | > 100 | > 100 | > 100 |  |  | > 100
